Assays:
Type in all cases: functional
[1] = system: MCF7; test: Growth inhibition of estrogen-dependent human MCF7 cells
[2] = system: MDA-MB-231; test: Growth inhibition of estrogen-independent human MDA-MB-231 cells
[3] = system: M21; test: Growth inhibition of human M21 cells
[4] = system: HT-29; test: Growth inhibition of human HT-29 cells

Row | Compound | GI50 [1] [µM] | GI50 [2] [µM] | GI50 [4] [µM] | GI50 [3] [µM]
1 | F/C(=C(\c1ccccc1)c1ccc(OCCN2CCCCC2)cc1)c1ccccc1 | 6.5 | 14.4 | 8.7 | 5.8
2 | O=Cc1ccc(/C(=C(\F)c2ccccc2)c2ccc(OCCN3CCCCC3)cc2)cc1 | 5.6 | 10.6 | 5.9 | 4.2
3 | Oc1ccc(C(=C(F)c2cccc(C(F)(F)F)c2)c2ccccc2)cc1 | 71.7 | 105 | 59.8 | 89.6
4 | Oc1ccc(C(=C(F)c2ccccc2)c2ccccc2)cc1 (mixture of isomers) | 21.3 | 46.9 | 32.8 | 53
5 | OCc1ccc(/C(=C(\F)c2ccccc2)c2ccc(OCCN3CCCCC3)cc2)cc1 | 7.4 | 12.6 | 6.9 | 5.9
6 | Oc1ccc(/C(=C(\F)c2ccccc2)c2ccc(OCCN3CCCC3)cc2)cc1 | 5.6 | 10.6 | 8.9 | 6.8
7 | Oc1ccc(/C(=C(\F)c2ccccc2)c2ccc(OCCN3CCCCC3)cc2)cc1 | 8.4 | 25.8 | 8.9 | 15.9

Continued, in another order:

Row | GI50 [1] [µM] | GI50 [2] [µM] | GI50 [4] [µM] | Compound | GI50 [3] [µM]
8 | 3.6 | 7.3 | 8.7 | CN(C)CCOc1ccc(/C(=C(/F)c2ccccc2)c2ccc(O)cc2)cc1 | 4.4
9 | 8.8 | 12.5 | 7.3 | F/C(=C(/c1ccccc1)c1ccc(OCCN2CCCCC2)cc1)c1ccccc1 | 5.6
10 | 10.4 | 22.2 | 10.5 | CN(C)CCOc1ccc(/C(=C(/F)c2ccccc2)c2ccccc2)cc1 | 13.5
11 |  | 18.8 | 9.5 | CC/C(=C(\c1ccccc1)c1ccc(OCCN(C)C)cc1)c1ccccc1 [TAMOXIFEN] | 11
12 | 41.7 | > 100 | 40.3 | F/C(=C(\c1ccccc1)c1ccc(OCCN2CCCC2)cc1)c1ccccc1 | 44

From ChEMBL document CHEMBL2331398, “Synthesis and growth inhibition activity of fluorinated derivatives of tamoxifen” (2013)
